Experimental data taken from patent publication US9468648B2, “Treatment including prebiotic composition for use with probiotics” (MASTER SUPPLEMENTS, INC., priority 2010, dated 2016).

Columns and labels:
Assay type in all cases: cell-based
[1] = tested on: THERALAC® Lot #32310A probiotic strains; assay: Growth of the commercial probiotic […] in MRS broth; conditions: for pH: 0.1% in MRS (Polysorbate 80: 1.0 g/l)
Protocol: MRS broth was prepared with (for controls) and without (for tests) polysorbate 80 and filled into 1 liter screw cap flasks at 500 ml each and autoclaved at 121° C. for 30 minutes. Various lecithin and/or oleic acid additives, or nothing (negative control), was added to the tests flasks prior to autoclaving. The flasks were then tempered to 37° C. in a water bath and inoculated at 0.1% with […]® Lot #32310A, a commercial probiotic product (Master Supplements, Inc., Victoria, Minn.). Capsules of […]® were opened and the contents mixed aseptically to serve as the inoculum source. At an inoculation rate of 0.1%, approximately 80 million CFU was added per ml of MRS media. […]® contains (formulation strength) the following probiotic strains at the approximate CFU values listed per gram: Turbidity, pH and titrations (made with 0.1 N NaOH and reported as % lactic acid) were made at various times up to 23 hours. The results are presented below in Table VI for the 12 and 23-hour analyses.

[2] = tested on: Lactobacillus salivarius-Ls-33 (LS-30); assay: Growth (turbidity) and lactic acid producing activity in MRS broth, L. salivarius Ls-33; conditions: for pH: 0.1% in MRS (Polysorbate 80: 1.0 g/l)
Protocol: (§1) Each flask was tempered to 37° C. and aseptically inoculated with 0.14 gm of the individual probiotic strains (in Examples 5 to 10 below) to be tested. At specified time intervals, a 30 ml sample from each flask was aseptically transferred into a HACH […] Turbidimeter sample cell. The turbidity of each sample was read and the results were reported in NTU's. The same 30 ml sample used for the turbidity reading was transferred into a 250 ml glass beaker, and the pH was recorded. The sample was titrated using 0.1 N NaOH to an endpoint of pH 6.8, and the quantity of NaOH used was recorded. The % Lactic Acid was calculated using the following formula: % Lactic Acid=((mls of 0.1N NaOH)×(0.1N)×(90 gm/mole)×(1 L/1000 ml))×100 mls of sample % Lactic Acid=(mls of 0.1N NaOH)×(0.9) (Results reported at 12 hours and 23 hours like: 12/23 in Table V below)

[3] = tested on: Lactobacillus paracasei Lpc-37 (F-19); assay: Growth (turbidity) and lactic acid producing activity in MRS broth, L. paracasei Lpc-37
Protocol: as §1, with “III” for “V”

[4] = tested on: Lactobacillus rhamnosus-Lr-32 (LR-44); assay: Growth (turbidity) and lactic acid producing activity in MRS broth, L. rhamnosus Lr-32; conditions: for pH: 0.1% in MRS (Polysorbate 80: 1.0 g/l)
Protocol: as §1, with “IV” for “V”

[5] = tested on: Lactobacillus acidophilus NCFM (LA-1); assay: Growth (turbidity) and lactic acid producing activity in MRS broth, L. acidophilus NCFM; conditions: for pH: 0.1% in MRS (Polysorbate 80: 1.0 g/l)
Protocol: as §1, with “At” for “Each flask was tempered to 37° C. and aseptically inoculated with 0.14 gm of the individual probiotic strains (in Examples 5 to 10 below) to be tested. At”, “I” for “V”

[6] = tested on: Bifidobacterium lactis Bl-04 (BL-34); assay: Growth (turbidity) and lactic acid producing activity in MRS broth, B. lactis Bl-04; conditions: 0.1% in MRS (Polysorbate 80: 1.0 g/l)
Protocol: as §1, with “II” for “V”

[7] = 0.1% in MRS (Polysorbate 80: 1.0 g/l), 12 hours

Molecule: CCCCCCCC/C=C\CCCCCCCC(=O)O [Oleic Acid, oleic acid]
- effectiveness as polysorbate 80 replacement (growth and activity) ([1]; 0.1% inclusion rate): acceptable replacement value for polysorbate 80
- effectiveness as polysorbate 80 replacement (growth and activity) ([2]; 0.1% inclusion rate): not as good a replacement
- effectiveness as polysorbate 80 replacement (growth and activity) ([3]; 0.1% inclusion rate): not as effective a replacement for polysorbate 80 as sunflower lecithin
- effectiveness as polysorbate 80 replacement (growth and activity) ([4]; 0.1% inclusion rate): not as good a replacement for polysorbate 80 as sunflower lecithin
- effectiveness as polysorbate 80 replacement (growth and activity) ([5]; 0.1% inclusion rate): somewhat effective as a polysorbate 80 replacement

Molecule: polysorbate 80
- pH ([1]; 12 hours): 3.9
- pH ([1]; 23 hours): 3.7
- pH ([2]; 12 hours): 3.8
- pH ([2]; 23 hours): 3.7
- Lactic Acid % [3, 7]: 0.99%
- pH [3, 7]: 4.2
- pH ([3]; 0.1% in MRS (Polysorbate 80: 1.0 g/l), 23 hours): 3.9
- Lactic Acid % ([6]; 12 hours): 0.57%
- pH ([6]; 12 hours): 4.8
- Lactic Acid % ([6]; 23 hours): 0.84%
- pH ([6]; 23 hours): 4.5
- pH ([4]; 12 hours): 4.0
- pH ([4]; 23 hours): 3.7
- pH ([5]; 12 hours): 4.2
- pH ([5]; 23 hours): 4.1
